Experimental data as given in article PMC8150835, “An Smp43-Derived Short-Chain α-Helical Peptide Displays a Unique Sequence and Possesses Antimicrobial Activity against Both Gram-Positive and Gram-Negative Bacteria” (Toxins, 2021).
Where a SMILES comes first, the peptide text is derived from it.

Tests used:
Assay type in all cases: cell-based
human red blood cells = experiment: Hemolytic activity determination; details: 2% (v/v) hRBCs, peptide 12.5-200 μg/mL, 37 °C, 1 h, absorbance 540 nm; 1% Triton X-100 = 100%; three independent experiments
Experimental: The hemolytic activities of the peptides were determined against human red blood cells (hRBCs). Briefly, fresh hRBCs anticoagulated with sodium citrate were rinsed with 0.9% sodium chloride by centrifugation (1000× g, 5 min). Then, the cells were diluted to a final concentration of 2% (v/v) and prepared in a clear 96-well polypropylene microtiter plate. Next, the samples were mixed with a series of concentrations of the peptide (12.5, 25, 50, 100 and 200 μg/mL) and incubated at 37 °C for 1 h. After that, the samples were centrifuged (2000× g, 10 min), and the absorbances of the supernatants were measured at 540 nm to evaluate the release of hemoglobin. HRBCs treated with 1% Triton X-100 or 0.9% sodium chloride were taken as 100% and 0% hemolysis, respectively.

[1] = system: Enterococcus faecalis ATCC29212; experiment: MIC determination (broth microdilution); details: MHB, 5 × 10^5 CFU/mL, peptide 0.625 to 40 μg/mL, 37 °C, 18 h, OD 630 nm
Experimental: (§1) The antimicrobial activities of the peptides were tested against S. aureus ATCC29213, E. faecalis ATCC29212, E. coli ATCC25922, K. pneumoniae ATCC700603, P. aeruginosa ATCC27853 and A. baumannii ATCC19606. All these strains were purchased from the China Center of Type Culture Collection (CCTCC).
(§2) The antimicrobial activities of the peptides were determined as previously described. Briefly, the bacteria were incubated at 37 °C and 150 rpm until the log phase of growth. Next, the bacteria were diluted with Mueller-Hinton broth (MHB, Oxoid, UK) and prepared in a clear round-bottom polypropylene 96-well microtiter plate to achieve a final concentration of 5 × 10^5 colony-forming unit (CFU)/mL. Twofold serial dilutions of the peptides were added into each well with the concentrations ranging from 0.625 to 40 μg/mL. The mixed peptides and cells were cultured at 37 °C and 150 rpm for 18 h, and the optical density (OD) was measured at 630 nm. The minimum inhibitory concentration was defined as the lowest peptide concentration with no detectable bacterial growth.

[2] = system: Pseudomonas aeruginosa ATCC27853; experiment: MIC determination (broth microdilution); details: MHB, 5 × 10^5 CFU/mL, peptide 0.625 to 40 μg/mL, 37 °C, 18 h, OD 630 nm
Experimental: as §1, §2

[3] = system: Staphylococcus aureus ATCC29213; experiment: MIC determination (broth microdilution); details: MHB, 5 × 10^5 CFU/mL, peptide 0.625 to 40 μg/mL, 37 °C, 18 h, OD 630 nm
Experimental: as §1, §2

[4] = system: Klebsiella pneumoniae ATCC700603; experiment: MIC determination (broth microdilution); details: MHB, 5 × 10^5 CFU/mL, peptide 0.625 to 40 μg/mL, 37 °C, 18 h, OD 630 nm
Experimental: as §1, §2

[5] = system: Acinetobacter baumannii ATCC19606; experiment: MIC determination (broth microdilution); details: MHB, 5 × 10^5 CFU/mL, peptide 0.625 to 40 μg/mL, 37 °C, 18 h, OD 630 nm
Experimental: as §1, §2

[6] = system: Escherichia coli ATCC25922; experiment: MIC determination (broth microdilution); details: MHB, 5 × 10^5 CFU/mL, peptide 0.625 to 40 μg/mL, 37 °C, 18 h, OD 630 nm
Experimental: as §1, §2

CC[C@H](C)[C@H](NC(=O)[C@H](CCCCN)NC(=O)[C@H](CCC(=O)O)NC(=O)[C@H](C)NC(=O)[C@@H](NC(=O)[C@H](Cc1ccccc1)NC(=O)[C@H](CC(N)=O)NC(=O)[C@H](CCCCN)NC(=O)[C@H](C)NC(=O)[C@H](C)N)C(C)C)C(=O)NCC(=O)N[C@@H](C)C(=O)N[C@H](C(=O)N1CCC[C@H]1C(N)=O)[C@@H](C)O [Smp43(29-42)] (H-AAKNFVAEKIGATP-NH2)
> 40 µg/mL: MIC [1] | MIC [2] | MIC [3] | MIC [4] | MIC [5] | MIC [6]
> 200 µg/mL: HC10: the concentration of the peptide that causes 10% hemolysis of human red blood cells (human red blood cells)

CC(C)C[C@H](NC(=O)[C@H](C)N)C(=O)N[C@@H](CCCCN)C(=O)N[C@@H](CO)C(=O)N[C@@H](CCC(N)=O)C(=O)N[C@@H](C)C(=O)N[C@@H](CC(C)C)C(=O)N[C@@H](CC(N)=O)C(=O)N[C@@H](C)C(=O)N[C@@H](C)C(=O)N[C@@H](CCCCN)C(=O)N[C@@H](CC(N)=O)C(=O)N[C@@H](Cc1ccccc1)C(=O)N[C@H](C(N)=O)C(C)C [Smp43(21-34)] (H-ALKSQALNAAKNFV-NH2)
> 200 µg/mL: HC10: the concentration of the peptide that causes 10% hemolysis of human red blood cells (human red blood cells)
> 40 µg/mL: MIC [1] | MIC [2] | MIC [3] | MIC [4] | MIC [5] | MIC [6]

CC(C)C[C@H](NC(=O)[C@H](C)NC(=O)[C@H](CCC(N)=O)NC(=O)[C@H](CO)NC(=O)[C@H](CCCCN)NC(=O)[C@H](CC(C)C)NC(=O)[C@H](C)NC(=O)[C@H](CCCCN)NC(=O)[C@@H](N)C(C)C)C(=O)N[C@@H](CC(N)=O)C(=O)N[C@@H](C)C(=O)N[C@@H](C)C(=O)N[C@@H](CCCCN)C(=O)N[C@@H](CC(N)=O)C(N)=O [Smp43(19-32)] (H-VKALKSQALNAAKN-NH2)
> 40 µg/mL: MIC [1] | MIC [2] | MIC [3] | MIC [4] | MIC [5] | MIC [6]
> 200 µg/mL: HC10: the concentration of the peptide that causes 10% hemolysis of human red blood cells (human red blood cells)

CC[C@H](C)[C@H](NC(=O)[C@H](CCCCN)NC(=O)CNC(=O)[C@H](C)NC(=O)[C@@H](NC(=O)[C@H](CCCCN)NC(=O)[C@H](CCCCN)NC(=O)[C@@H](NC(=O)[C@H](Cc1c[nH]c2ccccc12)NC(=O)[C@H](CC(=O)O)NC(=O)[C@@H](N)Cc1c[nH]c2ccccc12)[C@@H](C)CC)[C@@H](C)O)C(=O)N[C@@H](Cc1c[nH]c2ccccc12)C(=O)N[C@@H](CC(N)=O)C(=O)N[C@@H](CO)C(N)=O [Smp43(3-16)] (H-WDWIKKTAGKIWNS-NH2)
> 200 µg/mL: HC10: the concentration of the peptide that causes 10% hemolysis of human red blood cells (human red blood cells)
> 40 µg/mL: MIC [1] | MIC [2] | MIC [3] | MIC [4] | MIC [5] | MIC [6]

CC[C@H](C)[C@H](NC(=O)[C@H](CCCCN)NC(=O)CNC(=O)[C@H](C)NC(=O)[C@@H](N)[C@@H](C)O)C(=O)N[C@@H](Cc1c[nH]c2ccccc12)C(=O)N[C@@H](CC(N)=O)C(=O)N[C@@H](CO)C(=O)N[C@@H](CCC(=O)O)C(=O)N1CCC[C@H]1C(=O)N[C@H](C(=O)N[C@@H](CCCCN)C(=O)N[C@@H](C)C(=O)N[C@@H](CC(C)C)C(N)=O)C(C)C [Smp43(9-22)] (H-TAGKIWNSEPVKAL-NH2)
> 40 µg/mL: MIC [1] | MIC [2] | MIC [3] | MIC [4] | MIC [5] | MIC [6]
> 200 µg/mL: HC10: the concentration of the peptide that causes 10% hemolysis of human red blood cells (human red blood cells)

CC[C@H](C)[C@H](NC(=O)[C@H](CCCCN)NC(=O)CNC(=O)[C@H](C)NC(=O)[C@@H](NC(=O)[C@H](CCCCN)NC(=O)[C@@H](N)CCCCN)[C@@H](C)O)C(=O)N[C@@H](Cc1c[nH]c2ccccc12)C(=O)N[C@@H](CC(N)=O)C(=O)N[C@@H](CO)C(=O)N[C@@H](CCC(=O)O)C(=O)N1CCC[C@H]1C(=O)N[C@H](C(=O)N[C@@H](CCCCN)C(N)=O)C(C)C [Smp43(7-20)] (H-KKTAGKIWNSEPVK-NH2)
> 200 µg/mL: HC10: the concentration of the peptide that causes 10% hemolysis of human red blood cells (human red blood cells)
> 40 µg/mL: MIC [1] | MIC [2] | MIC [3] | MIC [4] | MIC [5] | MIC [6]

CC[C@H](C)[C@H](NC(=O)[C@H](CCCCN)NC(=O)[C@H](CCC(=O)O)NC(=O)[C@H](C)NC(=O)[C@@H](NC(=O)[C@H](Cc1ccccc1)NC(=O)[C@H](CC(N)=O)NC(=O)[C@H](CCCCN)NC(=O)[C@H](C)NC(=O)[C@H](C)NC(=O)[C@H](CC(N)=O)NC(=O)[C@@H](N)CC(C)C)C(C)C)C(=O)NCC(=O)N[C@@H](C)C(N)=O [Smp43(27-40)] (H-LNAAKNFVAEKIGA-NH2)
> 40 µg/mL: MIC [1] | MIC [2] | MIC [3] | MIC [4] | MIC [5] | MIC [6]
> 200 µg/mL: HC10: the concentration of the peptide that causes 10% hemolysis of human red blood cells (human red blood cells)

CC(C)C[C@H](NC(=O)[C@H](C)NC(=O)[C@H](CCC(N)=O)NC(=O)[C@H](CO)NC(=O)[C@H](CCCCN)NC(=O)[C@H](CC(C)C)NC(=O)[C@H](C)NC(=O)[C@H](CCCCN)NC(=O)[C@@H](NC(=O)[C@@H]1CCCN1C(=O)[C@@H](N)CCC(=O)O)C(C)C)C(=O)N[C@@H](CC(N)=O)C(=O)N[C@@H](C)C(=O)N[C@@H](C)C(N)=O [Smp43(17-30)] (H-EPVKALKSQALNAA-NH2)
> 200 µg/mL: HC10: the concentration of the peptide that causes 10% hemolysis of human red blood cells (human red blood cells)
> 40 µg/mL: MIC [1] | MIC [2] | MIC [3] | MIC [4] | MIC [5] | MIC [6]

CC[C@H](C)[C@H](NC(=O)[C@H](CCCCN)NC(=O)[C@H](CCC(=O)O)NC(=O)[C@H](C)NC(=O)[C@@H](NC(=O)[C@H](Cc1ccccc1)NC(=O)[C@H](CC(N)=O)NC(=O)[C@H](CCCCN)NC(=O)[C@H](C)NC(=O)[C@H](C)NC(=O)[C@H](CC(N)=O)NC(=O)[C@H](CC(C)C)NC(=O)[C@H](C)NC(=O)[C@@H](N)CCC(N)=O)C(C)C)C(N)=O [Smp43(25-38)] (H-QALNAAKNFVAEKI-NH2)
> 40 µg/mL: MIC [1] | MIC [2] | MIC [3] | MIC [4] | MIC [5] | MIC [6]
> 200 µg/mL: HC10: the concentration of the peptide that causes 10% hemolysis of human red blood cells (human red blood cells)

CC(C)C[C@H](NC(=O)[C@H](C)NC(=O)[C@H](CCC(N)=O)NC(=O)[C@H](CO)NC(=O)[C@H](CCCCN)NC(=O)[C@H](CC(C)C)NC(=O)[C@H](C)NC(=O)[C@H](CCCCN)NC(=O)[C@@H](NC(=O)[C@@H]1CCCN1C(=O)[C@H](CCC(=O)O)NC(=O)[C@H](CO)NC(=O)[C@@H](N)CC(N)=O)C(C)C)C(=O)N[C@@H](CC(N)=O)C(N)=O [Smp43(15-28)] (H-NSEPVKALKSQALN-NH2)
> 40 µg/mL: MIC [1] | MIC [2] | MIC [3] | MIC [4] | MIC [5] | MIC [6]
> 200 µg/mL: HC10: the concentration of the peptide that causes 10% hemolysis of human red blood cells (human red blood cells)

CC(C)C[C@H](NC(=O)[C@H](C)NC(=O)[C@H](CCC(N)=O)NC(=O)[C@H](CO)NC(=O)[C@@H](N)CCCCN)C(=O)N[C@@H](CC(N)=O)C(=O)N[C@@H](C)C(=O)N[C@@H](C)C(=O)N[C@@H](CCCCN)C(=O)N[C@@H](CC(N)=O)C(=O)N[C@@H](Cc1ccccc1)C(=O)N[C@H](C(=O)N[C@@H](C)C(=O)N[C@@H](CCC(=O)O)C(N)=O)C(C)C [Smp43(23-36)] (H-KSQALNAAKNFVAE-NH2)
> 200 µg/mL: HC10: the concentration of the peptide that causes 10% hemolysis of human red blood cells (human red blood cells)
> 40 µg/mL: MIC [1] | MIC [2] | MIC [3] | MIC [4] | MIC [5] | MIC [6]
